Reference: PMC4684357, “Comparative Evaluation of the Antimicrobial Activity of Different Antimicrobial Peptides against a Range of Pathogenic Bacteria” (PLoS ONE, 2015)
Where two headings read alike, the source gives them in different places. Residues, ends and D or L forms follow the SMILES beside them.

Assays:
horse erythrocytes = assay: Cytotoxicity assay: haemoglobin release (hemolytic activity); assay type: cell-based; settings: washed horse erythrocytes 10% (v/v) in PBS, 60 min 37°C, absorbance 540 nm, relative to full lysis by 0.2% Triton X-100, average ± SD of duplicates
Protocol: The cytotoxicity for each AMP was determined spectrophotometrically by measuring the haemoglobin release from horse erythrocytes. Briefly, fresh defibrinated horse blood was washed three times with PBS, centrifuged for 15 minutes at 1000g and resuspended at 10% (v/v) in PBS. Samples of the washed horse erythrocytes (100 μl) were transferred to a 96 well microtiter plate and mixed with 100 μl AMP solution. PBS was used as a negative control, and 0.2% TritonX-100 was used as a positive control. The microtiter plates were incubated for 60 minutes at 37°C and then centrifuged for 10 minutes at 1300g. The supernatants were transferred to a flat-bottom 96 well polystyrene microtiter plate and the haemoglobin release was monitored by measuring the absorbance at 540 nm. The percentage of hemolysis was calculated as 100 *(Asample−APBS)/(ATritonX-100 –APBS), where Asample is the experimental absorbance of the peptide sample, APBS is the control absorbance of untreated erythrocytes, and ATritonX-100 is the absorbance of 0.2% TritonX-100 lysed cells.

E. coli ATCC25922 [1] = system: E. coli ATCC25922
Protocol: The minimum inhibitory concentrations (MICs) of the AMPs were measured in 96-well microtiter plates according to the Clinical and Laboratory Standards Institute (CLSI, formerly National Committee for Clinical Laboratory Standards [NCCLS]). Briefly, liquid Mueller-Hinton-II medium containing increasing concentrations of AMPs is inoculated with a defined number of cells (approx. 10^5 CFUs/ml) in 96-well microtiter plates (polypropylene), whereas each plate also includes a positive growth control and a negative control (sterile control). After incubation, the MIC is determined by the lowest concentration showing no visible growth. All plates were incubated for 18–20 hours, except the F. psychrophilum plates which were incubated for 72 hours. […]

BW25113 wild-type = assay: MIC in LPS backgrounds; assay type: cell-based, Escherichia coli; settings: E. coli BW25113 wild-type; CLSI; triplicates
Text: (§1) The Yersinia ruckeri strain was kindly provided by Prof. Kurt Buchmann, University of Copenhagen, Faculty of Health and Medical Sciences, and the Flavobacterium psychrophilum strain was kindly provided by Prof. Inger Dalsgaard, DTU, Denmark. BW25113 is the Escherichia coli wild-type strain, a derivative of the F^-,λ^- E. coli K12 strain BD792 which was used in generating the KEIO collection. E. coli ATCC25922 is a clinical isolate, serotype O6 and is often used as control strain in antimicrobial susceptibility testing. All strains were grown in Mueller-Hinton-II medium, except L. monocytogenes which was grown in BHI medium and F. psychrophilum which was grown in TYES medium (Tryptone yeast extract plus salts). Incubation took place aerobically at 37°C, except for Y. ruckeri and A. salmonicida, which were grown aerobically at RT (20°C), C. jejuni NCTC11168 which was grown under microaerophilic conditions at 42°C and F. psychrophilum 1947 which was grown under aerobic conditions at 15°C. All plates were incubated for 18–20 hours, except the F. psychrophilum plates, which were incubated for 72 hours.
(§2) The minimum inhibitory concentrations (MICs) of the AMPs were measured in 96-well microtiter plates according to the Clinical and Laboratory Standards Institute (CLSI, formerly National Committee for Clinical Laboratory Standards [NCCLS]). Briefly, liquid Mueller-Hinton-II medium containing increasing concentrations of AMPs is inoculated with a defined number of cells (approx. 10^5 CFUs/ml) in 96-well microtiter plates (polypropylene), whereas each plate also includes a positive growth control and a negative control (sterile control). After incubation, the MIC is determined by the lowest concentration showing no visible growth. All plates were incubated for 18–20 hours, except the F. psychrophilum plates which were incubated for 72 hours.

E. coli ATCC25922 [2] = assay type: cell-based, Escherichia coli
Text: as §1
All plates were incubated for 18–20 hours, except the F. psychrophilum plates which were incubated for 72 hours.
All the MIC measurements were carried out in duplicate.

ATCC25922 ΔrfaF = assay type: cell-based, Escherichia coli; settings: E. coli ATCC25922 ΔrfaF; CLSI; triplicates
Text: as §1, §2
(§3) Construction of knock-out mutants of E. coli ATCC25922 were constructed using the λ-Red recombinase gene replacement system. Primers for amplification of the npt gene of pKD4 are listed in S1 Table. The correct double-crossover and recombination event was confirmed by primers listed in S1 Table and by sequencing. Finally, the kanamycin cassette was removed.

ATCC25922 ΔrfaG = assay type: cell-based, Escherichia coli; settings: E. coli ATCC25922 ΔrfaG; CLSI; triplicates
Text: as §1, §2, §3

ATCC25922 ΔrfaC = assay type: cell-based, Escherichia coli; settings: E. coli ATCC25922 ΔrfaC; CLSI; triplicates
Text: as §1, §2, §3

ATCC25922 ΔrfaE = assay type: cell-based, Escherichia coli; settings: E. coli ATCC25922 ΔrfaE; CLSI; triplicates
Text: as §1, §2, §3

BW25113 ΔrfaE = assay type: cell-based, Escherichia coli; settings: E. coli BW25113 ΔrfaE; CLSI; triplicates
Text: as §1, §2

BW25113 ΔrfaF = assay type: cell-based, Escherichia coli; settings: E. coli BW25113 ΔrfaF; CLSI; triplicates
Text: as §1, §2

BW25113 ΔrfaG = assay type: cell-based, Escherichia coli; settings: E. coli BW25113 ΔrfaG; CLSI; triplicates
Text: as §1, §2

BW25113 ΔrfaC = assay type: cell-based, Escherichia coli; settings: E. coli BW25113 ΔrfaC; CLSI; triplicates
Text: as §1, §2

SMILES | Hemolytic Activity (horse erythrocytes; peptide 256 μg/ml) [%] | Antimicrobial Activity MIC (E. coli ATCC25922 [1]) [µg/mL] | Antimicrobial Activity MIC (BW25113 wild-type) [µg/mL] | Antimicrobial Activity MIC (E. coli ATCC25922 [2]) [µg/mL] | Antimicrobial Activity MIC (ATCC25922 ΔrfaF) [µg/mL] | Antimicrobial Activity MIC (ATCC25922 ΔrfaG) [µg/mL] | Antimicrobial Activity MIC (ATCC25922 ΔrfaC) [µg/mL] | Antimicrobial Activity MIC (ATCC25922 ΔrfaE) [µg/mL] | Antimicrobial Activity MIC (BW25113 ΔrfaE) [µg/mL] | Antimicrobial Activity MIC (BW25113 ΔrfaF) [µg/mL] | Antimicrobial Activity MIC (BW25113 ΔrfaG) [µg/mL] | Antimicrobial Activity MIC (BW25113 ΔrfaC) [µg/mL] | Hemolytic Activity (horse erythrocytes; peptide 128 μg/ml) [%]
CC[C@H](C)[C@H](NC(=O)[C@@H]1CCCN1C(=O)[C@H](CCCNC(=N)N)NC(=O)[C@@H]1CCCN1C(=O)[C@@H]1CCCN1C(=O)[C@@H](NC(=O)[C@@H]1CCCN1C(=O)[C@H](CCCNC(=N)N)NC(=O)[C@@H]1CCCN1C(=O)[C@H](CC(C)C)NC(=O)[C@H](Cc1ccc(O)cc1)NC(=O)[C@H](CO)NC(=O)CNC(=O)[C@H](CCCCN)NC(=O)[C@H](CC(=O)O)NC(=O)[C@@H](N)C(C)C)[C@@H](C)O)C(=O)N[C@@H](Cc1ccc(O)cc1)C(=O)N[C@@H](CC(N)=O)C(=O)N[C@@H](CCCNC(=N)N)C(=O)N[C@@H](CC(N)=O)C(=O)O [Pyrrhocoricin] (H-VDKGSYLPRPTPPRPIYNRN-OH) | 0 ± 0 |  |  |  |  |  |  |  |  |  |  |  | 
CC[C@H](C)[C@H](NC(=O)CNC(=O)[C@H](CCC(=O)O)NC(=O)[C@H](CO)NC(=O)[C@@H](NC(=O)[C@H](CCCNC(=N)N)NC(=O)[C@H](CCCCN)NC(=O)[C@H](CCCCN)NC(=O)[C@H](C)NC(=O)[C@H](CO)NC(=O)[C@H](CC(N)=O)NC(=O)[C@H](CCC(=O)O)NC(=O)[C@H](CC(C)C)NC(=O)[C@H](CCCCN)NC(=O)[C@H](CCCCN)NC(=O)[C@H](C)NC(=O)[C@@H](NC(=O)[C@H](CCCCN)NC(=O)[C@H](CO)NC(=O)[C@H](CC(C)C)NC(=O)[C@H](Cc1c[nH]c2ccccc12)NC(=O)[C@@H](N)CO)[C@@H](C)O)[C@@H](C)CC)C(=O)N[C@@H](C)C(=O)N[C@H](C(=O)N[C@@H](C)C(=O)N[C@H](C(=O)N[C@@H](CCC(N)=O)C(=O)NCC(=O)NCC(=O)N1CCC[C@H]1C(=O)N[C@@H](CCCNC(=N)N)C(=O)O)[C@@H](C)CC)[C@@H](C)CC [Cecropin P1] (H-SWLSKTAKKLENSAKKRISEGIAIAIQGGPR-OH) |  | 16 | 16 to 32 | 32 | 8 | 16 | 8 | 8 | 8 | 4 | 16 | 8 | 
CC[C@H](C)[C@H](NC(=O)CN)C(=O)NCC(=O)N[C@@H](C)C(=O)N[C@H](C(=O)N[C@@H](CC(C)C)C(=O)N[C@@H](CCCCN)C(=O)N[C@H](C(=O)N[C@@H](CC(C)C)C(=O)N[C@H](C(=O)N[C@H](C(=O)NCC(=O)N[C@@H](CC(C)C)C(=O)N1CCC[C@H]1C(=O)N[C@@H](C)C(=O)N[C@@H](CC(C)C)C(=O)N[C@H](C(=O)N[C@@H](CO)C(=O)N[C@@H](Cc1c[nH]c2ccccc12)C(=O)N[C@H](C(=O)N[C@@H](CCCCN)C(=O)N[C@@H](CCCNC(=N)N)C(=O)N[C@@H](CCCCN)C(=O)N[C@@H](CCCNC(=N)N)C(=O)N[C@@H](CCC(N)=O)C(=O)N[C@@H](CCC(N)=O)C(N)=O)[C@@H](C)CC)[C@@H](C)CC)[C@@H](C)O)[C@@H](C)O)C(C)C)C(C)C [Melittin, reference compound] |  |  | 16 to 32 |  | 2 | 4 | 2 | 2 | 4 | 4 | 4 | 4 | 110 ± 1
